Where “and” joins values, the source holds several entries; their conditions need not be identical. Identical values can stand only once. Like-named read-outs stand apart in the source and are kept apart here.
Columns and labels:
Human TOP2A = target: T1, Human TOP2A (Homo sapiens, UniProt P11388); test: TOP2A DNA decatenation assay (kDNA, agarose gel); type: biochemical; settings: for inhibition at 30 µM: 1 h, read-out: % Inhibition TOP2A (30 μM); for IC50: decatenation dose response
T1 construct: purchased TopoGEN (Buena Vista, CO)
T1 sequence (P11388 whole entry): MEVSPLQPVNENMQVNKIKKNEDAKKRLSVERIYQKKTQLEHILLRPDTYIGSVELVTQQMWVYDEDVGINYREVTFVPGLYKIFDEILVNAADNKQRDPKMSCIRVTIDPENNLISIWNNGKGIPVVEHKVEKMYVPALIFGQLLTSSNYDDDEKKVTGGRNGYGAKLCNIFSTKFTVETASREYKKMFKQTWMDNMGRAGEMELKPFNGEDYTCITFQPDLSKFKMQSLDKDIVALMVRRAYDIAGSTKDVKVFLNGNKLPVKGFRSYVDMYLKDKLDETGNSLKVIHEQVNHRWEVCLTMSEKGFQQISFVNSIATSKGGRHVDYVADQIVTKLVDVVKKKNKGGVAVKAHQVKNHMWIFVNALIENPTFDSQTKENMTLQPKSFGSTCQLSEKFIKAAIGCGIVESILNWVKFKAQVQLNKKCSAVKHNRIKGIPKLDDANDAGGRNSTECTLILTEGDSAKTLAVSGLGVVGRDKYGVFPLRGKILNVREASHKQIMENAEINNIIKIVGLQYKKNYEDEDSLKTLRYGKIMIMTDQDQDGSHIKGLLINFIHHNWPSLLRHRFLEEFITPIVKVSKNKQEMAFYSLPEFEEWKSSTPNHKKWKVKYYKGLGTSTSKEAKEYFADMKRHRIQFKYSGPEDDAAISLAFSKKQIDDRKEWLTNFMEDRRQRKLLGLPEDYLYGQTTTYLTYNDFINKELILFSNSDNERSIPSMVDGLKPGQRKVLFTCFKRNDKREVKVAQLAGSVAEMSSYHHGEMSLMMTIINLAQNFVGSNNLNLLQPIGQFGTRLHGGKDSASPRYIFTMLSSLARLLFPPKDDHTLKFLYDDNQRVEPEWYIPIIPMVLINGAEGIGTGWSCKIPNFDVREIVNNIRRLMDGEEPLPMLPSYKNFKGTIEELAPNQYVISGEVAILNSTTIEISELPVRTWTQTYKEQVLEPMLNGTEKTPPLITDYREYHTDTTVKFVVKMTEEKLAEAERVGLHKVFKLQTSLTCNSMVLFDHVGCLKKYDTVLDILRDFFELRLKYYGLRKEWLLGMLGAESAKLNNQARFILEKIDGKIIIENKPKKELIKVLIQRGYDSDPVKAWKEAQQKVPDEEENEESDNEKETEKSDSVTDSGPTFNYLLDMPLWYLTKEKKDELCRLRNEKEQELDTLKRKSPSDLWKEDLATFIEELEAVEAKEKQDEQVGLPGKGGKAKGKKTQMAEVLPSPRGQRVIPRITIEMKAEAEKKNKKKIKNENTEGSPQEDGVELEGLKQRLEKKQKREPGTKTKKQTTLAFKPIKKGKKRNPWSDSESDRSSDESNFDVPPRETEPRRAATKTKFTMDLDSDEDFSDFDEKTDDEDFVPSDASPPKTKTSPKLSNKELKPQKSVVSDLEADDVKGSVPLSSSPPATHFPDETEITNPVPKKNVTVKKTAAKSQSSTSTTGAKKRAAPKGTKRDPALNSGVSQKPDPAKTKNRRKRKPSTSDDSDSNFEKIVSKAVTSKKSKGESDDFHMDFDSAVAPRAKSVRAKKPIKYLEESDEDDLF
Experimental: Inhibition of TOP2A activity. Human TOP2A, kDNA, and assay buffers were obtained from TopoGEN (Buena Vista, CO). The synthesized compounds were screened for their TOP2A inhibitory activity by the intensity of DNA decatenation bands on a DNA gel when compared to the vehicle. Compounds were initially incubated with TOP2A (3 U/reaction) for 20 min at a 30 μM and 1.2% DMSO concentration in a 37° C. incubator without CO2.
The decatenation reaction was initiated immediately after by adding 2 mM ATP and 35 ng/reaction of kDNA, then incubated for 1 hour in a 37° C. water bath. The samples were loaded into a 0.8% agarose gel in 1× Tris-Borate-EDTA (TBE) at a 0.2 μg/mL ethidium bromide concentration and allowed to run in an electrophoretic chamber for 1 hour at 100V. Compounds with the highest inhibitory activity were selected for 2-fold serial dilution dose-response assays (58.6 nM-30 μM). The dose-response assays followed the same protocol with the exception of 4 U/reaction of TOP2A.
Inhibition studies of TOP2A and observed structure activity relationships (SAR). DNA catenation/decatenation or linking/unlinking of DNA is one of the main TOP2A functions essential for regulating DNA topology, and this is ATP dependent. […] Thus, as a starting point, the synthesized analogs were screened against TOP2A-dependent decatenation using 30 μM fixed concentrations, and the DNA from reactions were resolved on 0.8% agarose gels containing ethidium bromide.
Moreover, these studies provided interesting SAR, which shed light on the potential lead drug target binding interactions and affinity, biological activity, and future drug design optimization with this unique class of TOP2A inhibitors.
(§1) TOP2A decatenation assay. Human TOP2A, kDNA, and assay buffers were obtained from TopoGEN (Buena Vista, CO). The synthesized compounds were screened for their TOP2A inhibitory activity by the intensity of DNA decatenation bands on a DNA gel when compared to the vehicle. Compounds were initially incubated with TOP2A (3 U/reaction) for 20 min at a 30 μM and 1.2% DMSO concentration in a 37° C. incubator without CO2. The decatenation reaction was initiated immediately after by adding 2 mM ATP and 35 ng/reaction of kDNA, then incubated for 1 h in a 37° C. water bath. The samples were loaded into a 0.8% agarose gel in 1× Tris-Borate-EDTA (TBE) at a 0.2 μg/mL ethidium bromide concentration and allowed to run in an electrophoretic chamber for 1 h at 100V. Compounds with the highest inhibitory activity were selected for 2-fold serial dilution dose-response assays (58.6 nM-30 μM). The dose-response assays followed the same protocol with the exception of 4 U/reaction of TOP2A,
as §1, with “assays (53.6” for “assays (58.6”, “of TOP2A.” for “of TOP2A,”

SW620 tumor organoids = test: Tumor organoid cytotoxicity / 3D cell viability (CellTox Green); type: cell-based; settings: Homo sapiens, SW-620, Table 2, 72 hours
Experimental: Tumor organoid cytotoxicity. Fluorescence image-based method: The CellTox™ Green assay (Promega, Madison, WI, USA) was used with 3D tumor organoid to measure spheroid death. 0.1% CellTox™ Green was included in each well at the time of analogs dosing. 10% lysis solution was used as a cell death control. Fluorescence was measured at various time points with 465-510 nm excitation and 520-530 nm emission. Luminescence plate reader method: A 1:1 ratio of CellTiter-Glo™ 3D reagent (Promega) was added to 3D tumor organoid and the plate was shaken at 400 rpm for 30 min before luminescence was read with a PerkinElmer Envision plate reader.
Finally, SW620 tumor organoid cytotoxicity experiments were conducted using the CellTox Green assay, a fluorescence image-based method, to determine whether the inhibition of TCF transcription and effects on EMT are not the result of cytotoxicity. […] All of the analogs tested display IC50 dose response >30 μM and were higher compared to the IC50 values obtained during the downregulation of TCF transcription activity, and the EC50 values obtained for EMT modulation. Thus, the biological effects on TCF-transcription and EMT are not a result of tumor organoid cell death.
(§2) Tumor organoid cytotoxicity. SW620 tumor organoids were grown as previously outlined. CellTox™ Green-Express Cytotoxicity Assay (Promega, WI) solution was prepared per manufacturer's protocol. Briefly, organoids were treated for 72 h with CellTox™ Green Express (0.5×) reagent and various doses of TOP2A inhibitors over a range of 0-to-40 μM. Organoids were then imaged using the Opera Phenix HCS system (PerkinElmer, MA). CellTox™ Green Express was excited at 488 nm and emission was detected at 500-550 nm. Mean intensity of the whole well was utilized for calculating cytotoxicity with Lysis Buffer (Promega, WI, 0.025×) as the 0% viability control and 0.4% DMSO as the 100% viability control. Intensity values were normalized to these controls using GraphPad Prism 7.0 (GraphPad, CA).
as §2, with “CellTox™-Green-Express” for “CellTox™ Green-Express”, “(GraphPad.” for “(GraphPad,”

[1] = system: TOP2A-dependent TCF-transcription in SW620-TOP tumor organoids; test: TCF (TOPflash) reporter assay in 3D tumor organoids; type: cell-based; settings: SW620-TOP tumor organoids, 72 hours; read-out: IC50 inhibition of TCF-transcription
Experimental: TCF reporter assay in 3D Tumor organoid. Stable engineered cells containing pCDH-TOPflash-luc-EF1-puro were used to generate tumor organoid arrayed in 96-well plates and treated for 72 hours. One-Glo™ luciferase reagent and CellTiter-Glo™ 3D cell viability reagent (Promega) were used to determine the TCF reporter activity in viable cells.
After characterizing 3 and 7 as TOP2A ATP-competitive inhibitors, these compounds were next tested for their ability to inhibit TOP2A-dependent TCF-transcription using the well characterized TOPflash (TOP) luminescent reporter, which was used to generate a stably transduced SW620-TOP reporter cells as described previously (Zhou, et al., Oncogene 2016, 35:4990-9). These cells were used to generate single 3D tumor organoids (700 μm in diameter) uniformly arrayed in 96-well plates, which mimic aspects of tumor function observed in vivo. […] Like neo, the mode of action of compounds 3 and 7 also results in significant antitumor activity (FIGS. 3E-3H). […] In other words, the activity of 3 and 7 is long lasting, suppressing CSC stemness and related tumorigenicity. EMT is a major driving force promoting tumor cell invasion and metastasis. […] Tumor organoids were dissociated, and viable cells were washed and plated into the top chamber of 96-well invasion plate coated with Matrigel and incubated for an additional 72 hours without adding any additional compound. […] Taken together, the biological activity of 3 and 7 is consistent with the activity of neo, inhibiting TOP2A-dependent TCF-transcription that in turn reverses EMT while inhibiting the associated tumorigenic properties of mCRC.
A similar trend in IC50 values was observed compared to TOP2A enzyme studies, further supporting our proposed mechanism of action as inhibition of TOP2A-dependent TCF-transcription.
3D Tumor organoid TOPflash reporter assay. […] 35(38): p. 4990-9.] were used to generate tumor organoids arrayed in 96-well plates and treated for 72 h with TOP2A inhibitors. One-Glo™ luciferase reagent and CellTiter-Glo™ 3D cell viability reagent (Promega, WI) were used to determine the TCF reporter activity in viable cells. Briefly, reagents were added to the spheroids at 1:1 ratio (v:v) and the plates were placed on an orbital shaker (300 rpm) for 10 min at room temperature before the luminescence was read with Envision plate reader (PerkinElmer, MA). TCF reporter activity was normalized to organoid viability and inhibitors treated conditions were normalized to DMSO treated controls.

[2] = Water solubility (stated); type: physicochemical
[3] = Table 1, decatenation, 30 μM fixed concentration
[4] = read-out: IC50 TOP2A inhibition

## CC(=O)Nc1ccc2c(-c3cc4ccccc4o3)ccnc2c1O [Analog 53]
Human TOP2A; [3]
  inhibition at 30 µM: 100%
Human TOP2A; [4]
  IC50: 0.24 µM and 0.2 µM
Human TOP2A; decatenation screen at 30 μM
  TOP2A inhibition, result in words: complete inhibitory activity against TOP2A
SW620 tumor organoids
  IC50: > 30 µM

## O=C(CN1CCOCC1)Nc1ccc2c(-c3cc(F)ccc3O)ccnc2c1O [Analog 41]
Human TOP2A; [3]
  % Inhibition TOP2A (30 μM): 4.0%
[1]
  IC50: 4.7 µM

## O=C(CCN1CCOCC1)Nc1ccc2c(-c3cc4ccccc4o3)ccnc2c1O [Analog 61]
Human TOP2A; [3]
  inhibition at 30 µM: 83%
Human TOP2A; Table 1, read-out: % Inhibition TOP2A (IC50 Values)
  IC50: 4.1 µM
Human TOP2A; [4]
  IC50: 4 µM
Human TOP2A; ratio of TOP2A IC50 values
  fold less potent compared to 53 (TOP2A IC50): 20 fold
[2]
  water solubility, in words: maintains water solubility
